Source: patent publication US11230525B2, “Organic sulfur compound, method for preparing same, and pharmaceutical composition for preventing or treating cancer or an inflammatory disease, containing same as active ingredient” (SOOKMYUNG WOMENS UNIVERSITY INDUSTRY-ACADEMIC COOPERATION …, priority 2016, dated 2022)

Assays:
[1] = tested on: PC-3 cells, human prostate cancer cells; assay: Anticancer activity in prostate cancer xenograft model; type: in vivo, mice; settings: 50 mg/kg (SAHA 100 mg/kg) once a day for 16 days, compared with the non-treated group
Description: Particularly, 9×10^6 PC-3 cells, human prostate cancer cells, were inoculated subcutaneously to the right side of female BALB/c nu/nu mice at 5 weeks of age (Nara Biotech, Seoul, Republic of Korea).
When the tumor size reached 40-60 mm^3, the mice were randomly grouped (4 mice per group), which were the non-treated group (10% dimethylacetamide, 10% tween 80 and 80% distilled water), the groups treated with the compounds of comparative examples 1 and 2 (Ajoene, 50 mg/kg), the groups treated with the compounds of examples 18 and 32 (50 mg/kg), and the group treated with the positive control SAHA (Vorinostat, 100 mg/kg). The treatment was performed once a day for 16 days in total. During the treatment, the tumor size was measured with a vernier caliper, followed by evaluation according to the following formula: length (mm)×width (mm)×height (mm)/2. The weights were measured regularly.
Upon completion of the treatment (16 days later), the mice were sacrificed and the tumor weights were measured. All the experiments were performed according to the experiment protocol approved by Institutional Animal care and Use Committee (IACUC), Korea Research Institute of Bioscience and Biotechnology (KRIBB).

[2] = tested on: lung cancer cell line (NCl-H23); assay: Cancer proliferation inhibitory activity (SRB, GI50), NCI-H23; type: cell-based; settings: Homo sapiens, 48 hours
Text: (§1) Particularly, the cancer proliferation inhibitory activity of the compounds of comparative examples (Ajoene and the compounds isosteric to Ajoene wherein R1 is allyl or benzyl) and the compounds of examples of the present invention (the compounds not isosteric to Ajoene wherein R^1 is phenyl) was investigated in human cancer cell lines (renal cancer cell line (ACHN), breast cancer cell line (MDA-MB-231), colorectal cancer cell line (HCT-15), prostate cancer cell line (PC-3), gastric cancer cell line (NUGC-3) and lung cancer cell line (NCl-H23)).
(§2) At this time, the cancer cell lines (renal cancer cell line (ACHN), breast cancer cell line (MDA-MB-231), colorectal cancer cell line (HCT-15), prostate cancer cell line (PC-3), gastric cancer cell line (NUGC-3) and lung cancer cell line (NCl-H23)) above were purchased from American Type Culture Collection (Manassas, Va., USA). Cells were cultured in RPMI 1640 supplemented with 10% fetal bovine serum, which were maintained 37° C. under 5% CO2 wet atmosphere. The cells were distributed in a 96-well plate, which was not treated (treated only with 0.1% DMSO) or treated with the compounds of examples of the present (0.1 μM to 10 μM). 48 hours later, the cells were fixed in 50% trichloroacetic acid, followed by staining with 1% acetic acid containing 0.4% sulphorodamine B dissolved therein. The non-conjugated dye was removed by washing with 1% acetic acid, and the protein conjugated dye was extracted with 10 mM Tris base (pH 10.5). Then, OD540 was measured with VersaMax microplate reader (Molecular devices, Sunnyvale, Calif., USA). GI50 was calculated by using GraphPad Prism software (GraphPad Software, Inc., San Diego, Calif., USA).
(§3) Based on the results obtained in experimental example 1-1 above, the derivatives wherein R^1 is phenyl were additionally synthesized. The cancer proliferation inhibitory activity of the derivatives was evaluated by the same manner as described in experimental example 1-1.

HDAC 8 = target: T1, HDAC 8 (Homo sapiens, UniProt Q9BY41); assay: HDAC enzyme fluorescence assay, HDAC 8; type: biochemical; set-up: Inhibitory activity (%) HDAC 8: concentration or dose not given beside the values; settings: for Inhibitory activity (%) HDAC 8: (HDAC inhibitory activity of example compound/HDAC inhibitory activity of SAHA) × 100
T1 sequence (Q9BY41 1-377): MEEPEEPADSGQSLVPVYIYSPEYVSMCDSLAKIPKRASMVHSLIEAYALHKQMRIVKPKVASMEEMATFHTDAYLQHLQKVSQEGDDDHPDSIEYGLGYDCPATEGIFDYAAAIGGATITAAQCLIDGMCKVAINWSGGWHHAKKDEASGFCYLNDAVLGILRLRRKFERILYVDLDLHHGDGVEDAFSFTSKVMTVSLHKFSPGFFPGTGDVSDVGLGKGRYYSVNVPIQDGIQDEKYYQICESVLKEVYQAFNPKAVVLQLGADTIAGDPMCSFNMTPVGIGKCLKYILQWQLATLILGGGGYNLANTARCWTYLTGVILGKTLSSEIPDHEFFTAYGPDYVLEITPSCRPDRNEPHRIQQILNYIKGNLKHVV
Description: Particularly, HDAC enzyme analysis was performed based on a uniform fluorescence emission assay. First, the compounds of examples of the present invention or comparative example 1 were diluted at different concentrations, which were treated to the analysis buffer containing 25 mM HEPES (pH 8.0), 137 mM NaCl, 1 mM MgCl2 and 2.7 mM KCL, followed by culture of the recombinant HDAC enzyme. 10 minutes later, Boc-Lys(acetyl)-AMC, the fluorescence inducing substrate, was added thereto, followed by further culture at 37° C. At this time, the concentration of the fluorescence inducing substrate and the culture time were adjusted according to the isotypes of the HDAC enzyme. The reaction was terminated by treating trypsin at room temperature for 20 minutes. The fluorescence intensity was measured using a fluorescence analyzer at an excitation wavelength of 380 nm and an emission wavelength of 460 nm, respectively. The inhibition rate was calculated from the measured fluorescence intensity of each well with comparing to that of the control well. IC50 of the compound was calculated by analyzing the dose-reaction inhibition curve.
The HDAC 8 inhibitory activity was presented as percentage of relative activity by the inhibitory activity of SAHA (Vorinostat) used as a reference compound.

[3] = tested on: breast cancer cell line (MDA-MB-231); assay: Cancer proliferation inhibitory activity (SRB, GI50), MDA-MB-231; type: cell-based; settings: Homo sapiens, 48 hours
Text: as §1, §2, §3

[4] = tested on: renal cancer cell line (ACHN); assay: Cancer proliferation inhibitory activity (SRB, GI50), ACHN; type: cell-based; settings: Homo sapiens, 48 hours
Text: as §1, §2, §3

[5] = tested on: gastric cancer cell line (NUGC-3); assay: Cancer proliferation inhibitory activity (SRB, GI50), NUGC-3; type: cell-based; settings: Homo sapiens, 48 hours
Text: as §1, §2, §3

[6] = tested on: colorectal cancer cell line (HCT-15); assay: Cancer proliferation inhibitory activity (SRB, GI50), HCT-15; type: cell-based; settings: Homo sapiens, 48 hours
Text: as §1, §2, §3

[7] = tested on: prostate cancer cell line (PC-3); assay: Cancer proliferation inhibitory activity (SRB, GI50), PC-3; type: cell-based; settings: Homo sapiens, 48 hours
Text: as §1, §2, §3

SMILES	GI50 [2]	Inhibitory activity (%) HDAC 8 (HDAC 8)	GI50 [3]	GI50 [4]	GI50 [5]	GI50 [6]	GI50 [7]	IC50 (HDAC 8; recombinant HDAC enzyme, Boc-Lys(acetyl)-AMC, read-out: IC50 HDAC 8)	tumor size / cancer proliferation (FIGS. 2, 3) [1]
O=C(CCCCCCC(=O)Nc1ccccc1)NO [SAHA, reference compound]									cancer proliferation was inhibited
[O-][S+](C/C=C\SSCc1ccc(Cl)c(Cl)c1)c1ccccc1 (stereo not drawn) [Example 14, (Z)-1-(3,4-dichlorobenzyl)-2-(3-(phenylsulfinyl)prop-1-enyl)disulfane]	7350 nM	146.4%	4780 nM	7680 nM	8510 nM	> 10000 nM	4550 nM		
[O-][S+](C/C=C/SSCc1ccccc1)c1ccccc1 (stereo not drawn) [Example 5, (E)-1-benzyl-2-(3-(phenylsulfinyl)prop-1-enyl)disulfane]	2980 nM	88.6%	6270 nM	5750 nM	3710 nM	3970 nM	3190 nM		
[O-][S+](C/C=C/SSCc1ccc(Cl)cc1)c1ccccc1 (stereo not drawn) [Example 11, (E)-1-(4-chlorobenzyl)-2-(3-(phenylsulfinyl)prop-1-enyl)disulfane]	2000 nM	74.4%	1560 nM	1220 nM	1160 nM	1670 nM	1300 nM		
COc1ccc([S+]([O-])C/C=C\SSCc2ccc(F)cc2)cc1 (stereo not drawn) [Example 34, (Z)-1-(4-fluorobenzyl)-2-(3-(4-methoxyphenylsulfinyl)prop-1-enyl)disulfane]	1490 nM	68.1%	1090 nM	1340 nM	2650 nM	1450 nM	1350 nM		
CCCSS/C=C/C[S+]([O-])c1ccc(OC)cc1 (stereo not drawn) [Example 29, (E)-1-(3-(4-methoxyphenylsulfinyl)prop-1-enyl)-2-propyldisulfane]	1410 nM	69.9%	2200 nM	1650 nM	2040 nM	1480 nM	2410 nM		
COc1ccc([S+]([O-])C/C=C/SSCc2ccc(F)cc2)cc1 (stereo not drawn) [Example 33, (E)-1-(4-fluorobenzyl)-2-(3-(4-methoxyphenylsulfinyl)prop-1-enyl)disulfane]	270 nM	111.7%	160 nM	170 nM	240 nM	250 nM	290 nM		
COc1ccc([S+]([O-])C/C=C/SSCc2ccc(Cl)cc2)cc1 (stereo not drawn) [Example 35, (E)-1-(4-chlorobenzyl)-2-(3-(4-methoxyphenylsulfinyl)prop-1-enyl)disulfane]	970 nM	107.2%	1160 nM	880 nM	1080 nM	880 nM	1050 nM		
C=CCSS/C=C/C[S+]([O-])c1cccc(OC)c1 (stereo not drawn) [Example 15, (E)-1-allyl-2-(3-(3-methoxyphenylsulfinyl)prop-1-enyl)disulfane]	3420 nM	84.6%	4510 nM	2560 nM	2950 nM	2580 nM	3020 nM		
[O-][S+](C/C=C/SSCc1ccc(F)cc1)c1ccccc1 (stereo not drawn) [Example 7, (E)-1-(4-fluorobenzyl)-2-(3-(phenylsulfinyl)prop-1-enyl)disulfane]	7690 nM	37.1%	3240 nM	7110 nM	6840 nM	10400 nM	3890 nM		
COc1cccc([S+]([O-])C/C=C\SSCc2ccc(Cl)c(Cl)c2)c1 (stereo not drawn) [Example 26, (Z)-1-(3,4-dichlorobenzyl)-2-(3-(3-methoxyphenylsulfinyl)prop-1-enyl)disulfane]	> 10000 nM	161.9%	> 10000 nM	> 10000 nM	3220 nM	7250 nM	6670 nM		
CCCSS/C=C/C[S+]([O-])c1cccc(OC)c1 (stereo not drawn) [Example 17, (E)-1-(3-(3-methoxyphenylsulfinyl)prop-1-enyl)-2-propyldisulfane]	1580 nM	78.4%	1380 nM	1570 nM	1590 nM	2170 nM	1990 nM		

Further compounds by falling GI50 [2], results first:

GI50 [2]	Inhibitory activity (%) HDAC 8 (HDAC 8)	GI50 [3]	GI50 [4]	GI50 [5]	GI50 [6]	GI50 [7]	IC50 (HDAC 8; recombinant HDAC enzyme, Boc-Lys(acetyl)-AMC, read-out: IC50 HDAC 8)	SMILES	tumor size / cancer proliferation (FIGS. 2, 3) [1]
4240 nM	73.5%	7280 nM	5060 nM	3770 nM	3940 nM	4470 nM		C=CCSS/C=C\C[S+]([O-])c1ccc(OC)cc1 (stereo not drawn) [Example 28, (Z)-1-allyl-2-(3-(4-methoxyphenylsulfinyl)prop-1-enyl)disulfane]	
3580 nM	52.9%	2140 nM	3230 nM	2360 nM	2430 nM	3020 nM	290 nM	CCCSS/C=C\C[S+]([O-])c1ccc(OC)cc1 (stereo not drawn) [Example 30, (Z)-1-(3-(4-methoxyphenylsulfinyl)prop-1-enyl)-2-propyldisulfane]	
3460 nM	114.3%	4340 nM	3720 nM	3780 nM	2600 nM	2960 nM		COc1cccc([S+]([O-])C/C=C\SSCc2ccccc2)c1 (stereo not drawn) [Example 20, (Z)-1-benzyl-2-(3-(3-methoxyphenylsulfinyl)prop-1-enyl)disulfane]	
2920 nM	76.6%	7500 nM	1970 nM	1770 nM	2780 nM	2300 nM		[O-][S+](C/C=C/SSCc1ccc(Cl)c(Cl)c1)c1ccccc1 (stereo not drawn) [Example 13, (E)-1-(3,4-dichlorobenzyl)-2-(3-(phenylsulfinyl)prop-1-enyl)disulfane]	
2800 nM	43.8%	2150 nM	3900 nM	2930 nM	2640 nM	4740 nM		CCCSS/C=C/C[S+]([O-])c1ccccc1 (stereo not drawn) [Example 3, (E)-1-(3-(phenylsulfinyl)prop-1-enyl)-2-propyldisulfane]	
